# Experimental data: a melting point compilation (Tetko et al.; mined from patent text by program, amines drawn as free bases though some values may be those of a salt)
row,Compound,melting point
1,CCC(OC(C)=O)c1ccc(Cl)c2nc3n(c12)CCCN3c1ncc(Cl)cc1Cl (stereo not given),157 to 159 °C
2,CC(C)(C)c1cc2c(c(C(C)(C)C)c1)OC(=O)C2c1ccc(O)cc1 (stereo not given),187 to 190 °C
3,CCCC[C@H]1CC[C@H](c2ccc(OC(=O)[C@H]3CC[C@H](CCC)C3)cc2)CC1 (relative stereo),90 °C
4,Nc1c(C(=O)O)sc2cc(F)ccc12,160 to 163 °C
5,COC(=O)C(CCn1c(C(=O)c2ccccc2)cc(Br)c1Br)C(=O)OC,96 to 96.5 °C
6,O=Cc1c(Cl)ccc(C2OCCO2)c1Cl,96 to 98 °C
7,CN1CC(C(Oc2ccccc2N)c2ccccc2)OCC1=O (stereo not given),167 to 170 °C
8,CC(=O)OC1CCC2C3CCC4=CC(=O)C=C(C)C4(C)C3CCC12C (stereo not given),144 °C
9,Cc1cc(C)c2nc(N(CC(C)N3CCOCC3)C3CCNCC3)n(Cc3nc(C)ccc3O)c2c1 (stereo not given),223 °C
10,COc1ccc2c(c1)c1c(n2CCCN(C)C)CCCSCC1,79 to 80 °C
11,CSc1nsc(NC(=O)Oc2ccccc2)c1C#N,244 to 245 °C
12,O=c1[nH]nc(-c2ccccc2[N+](=O)[O-])o1,157 to 158 °C
13,CSC(SC)=C1CCC2CC=CC=C2C1=O (stereo not given),54 to 56 °C
14,COC(=O)c1ccc(CC(C)NCC(O)c2cccc(C(F)(F)F)c2)cc1 (stereo not given),73 to 88 °C
15,C=C(COCc1ccccc1)C(O)C(NC=O)C(=O)OCC (stereo not given),112 to 114 °C
16,CN(C)S(=O)(=O)n1c(N)nc2ccc(C(N)=O)cc21,206 to 208 °C
17,NC(=O)Cc1cnc(Nc2n[nH]c3ccc(-c4ncccc4Cl)cc23)s1,> 230 °C
18,COCC(=O)Nc1ccc(C2=NNC(=O)CC2C)cc1 (stereo not given),212 °C
19,O=S1(=O)c2cccc3cccc(c23)N1CCCCN1CC=C(c2ccc(Cl)cc2)CC1,12 °C
20,C=CCc1cc2c(c(CC=C)c1O)OCC(=O)N2CC=C,91 to 92 °C
21,COc1ccc(CC(C)(N)C(=O)O)cc1 (stereo not given),243 to 244 °C
22,CC1(CO)COC(Cn2ccnc2)(c2ccc(Cl)cc2Cl)OC1 (stereo not given),174 to 175 °C
23,COC(=O)/C=C/c1ccc(N)nc1,173 to 175 °C
24,CCc1cccc2oc(C(=O)Nc3ccc(-c4ccc(S(=O)(=O)NC(C(=O)OC)C(C)C)cc4)cc3)c(C)c12 (stereo not given),183 to 185 °C
25,COc1ccc2c(n1)C1(CO2)C(=O)N(Cc2ccccn2)c2ccccc21 (stereo not given),168 to 171 °C
26,CSc1ccc(N)c(C(=O)O)c1,145 to 150 °C
27,COc1cccc(N2CCN(CCC(O)COc3ccccc3)CC2)c1 (stereo not given),58 to 60 °C

# Now from value to compound:
row,melting point,Compound
1,158 to 160 °C,CC1(C)CCc2c(ccc3c2C(=O)C(Cl)=C(Cl)C3=O)O1
2,39 to 40 °C,CCCCCCCCCCCCCCCCCCN1C(=O)C2(CCCCC2)NC2(CCCCC2)C1=O
3,154 to 155 °C,COC(=O)c1ccc(COc2ccc3cc(-c4ccc(-c5ccccc5)n4Cc4ccc(C(F)(F)F)cc4)ccc3c2)cc1
4,299 to 300 °C,Oc1ccc2nc(-c3ccc(O)c(F)c3)cc(-c3ccc(C(F)(F)F)cc3)c2c1
5,131 to 132 °C,Nc1cc2c(cc1[N+](=O)[O-])CCC2
6,256 to 258 °C,CN(C(=O)c1ccc2c(c1)nc(NC(=O)c1cccs1)n2CCCC(=O)O)C1CCCCC1
7,98 to 101 °C,OC(CCN1CCC(c2ccccc2)CC1)c1ccc(Cc2ccc(Cl)cc2)cc1 (stereo not given)
8,110 to 112 °C,CCOC(=O)CSc1nc(Cl)cc(Nc2ccc(-c3ccccc3)cc2)n1
9,150 to 152 °C,CC(C)(C)SN1C(=O)NC(=O)C1=O
10,199 to 202 °C,O=C(Cc1ccc(NC(=O)c2cn3c4c(cccc24)CCC3)cc1)NO
11,172 to 174 °C,Nc1ncccc1-c1nc2cccnc2n1-c1ccc(CNC(=O)c2ccccn2)cc1
12,116 to 117 °C,CN1CCC(Cc2ccccc2)(Oc2ccc([N+](=O)[O-])cc2)CC1
13,280 to 285 °C,CNS(=O)(=O)c1ccc(Nc2nc(-c3ccccc3)cc(N3CCC(O)CC3)n2)cc1
